Results published in patent US20220023399A1, “BLOOD COMPONENT POTENTIATION OF LYTIC PROTEIN ANTI-BACTERIAL ACTIVITY AND METHODS AND USES THEREOF” (priority 2017, published 2022).
In brackets after ≈: the same amount, converted by molar mass. Read-outs that look alike come from different tables or passages of the source. No end group written: not given here.

How the values were obtained:
[1] = system: staphylococci (strain not given); experiment: Checkerboard analysis of PlySs2/CF-301 with AMPs, antimicrobial proteins and albumins in heat-inactivated human serum; type: cell-based, S. aureus; settings: in combination with PlySs2/CF-301
[2] = system: S. aureus (strain not given); experiment: MIC analysis of various lysins, chimeric lysins and antibiotics in MHB and human serum; type: cell-based; settings: for Minimal inhibitory concentration, MHB / Fold decrease in MIC / Minimal inhibitory concentration, Human serum: Table 14 (Example 2); for Fold decrease in MIC: human serum vs MHB; for MIC: Staphylococcus aureus
Protocol: To further evaluate the binding domain relevance to the serum component effect, various chimerics were constructed by replacing or swapping out one binding domain for another. Chimeric lysins having the Sal1 CHAP catalytic domain with ClyS binding domain, PlySs2 (CF-301) binding domain, or lysostaphin binding domain were assayed for MIC using MHB versus human serum. the results are depicted below in TABLE 14.

[3] = system: methicillin-resistant S. aureus (MRSA) strain MW2; experiment: Time-kill assay in blood matrices and MHB; type: cell-based; settings: strain MW2; human blood matrices vs MHB
S. aureus strain MW2 = experiment: Synergy time-kill assay; type: cell-based; settings: human serum
MRSA strain MW2 [4] = experiment: Checkerboard assay in human serum and MHB; type: cell-based, S. aureus; settings: in combination with PlySs2 (CF-301)
[5] = system: S. aureus (strain not given); experiment: MIC analysis of various lysins, chimeric lysins and antibiotics in MHB and human serum; type: cell-based; settings: Table 2; for Fold decrease in MIC: human serum vs MHB; for MIC: Staphylococcus aureus
MRSA strain MW2 [6] = experiment: Rabbit infective endocarditis model; type: in vivo, New Zealand White Rabbits; settings: rabbit IE model; daptomycin 4 mg/kg IV once daily for 4 days

Serum albumin (Rabbit, from serum): rabbit serum albumin
ΣFICavg [1]: ≤0.1

Histatin-5 [reference compound]
ΣFICavg [1]: ≥1.16

Lysostaphin: lysin-like enzyme of Staphylococcus simulans with SH3-type binding domain; SEQ ID NO:7
Minimal inhibitory concentration, MHB [2]: 2 µg/mL
Fold decrease in MIC [2]: 512
Minimal inhibitory concentration, Human serum [2]: 0.0039 µg/mL
difference in sterilizing activity/potency, blood compared to MHB [3]: 100 fold
concentration of each agent in PlySs2 (CF-301) + lysostaphin combination sterilizing at 24 hours (S. aureus strain MW2): 0.005 µg/mL
ΣFICAVG (MRSA strain MW2 [4]; HuS): 0.13
ΣFICMIN (MRSA strain MW2 [4]; HuS): 0.09
ΣFICAVG (MRSA strain MW2 [4]; MHB): 0.5
ΣFICMIN (MRSA strain MW2 [4]; MHB): 0.275
Minimal inhibitory concentration, MHB ([5]; MHB): 2 µg/mL
Fold decrease in MIC [5]: 512
Fold decrease in MIC ([5]; listed as lysostaphin): 32
Minimal inhibitory concentration, Human serum ([5]; human serum): 0.0039 µg/mL

CN[C@H](CC(C)C)C(=O)N[C@H]1C(=O)N[C@@H](CC(N)=O)C(=O)N[C@H]2C(=O)N[C@H]3C(=O)N[C@H](C(=O)N[C@H](C(=O)O)c4cc(O)cc(O)c4-c4cc3ccc4O)[C@H](O)c3ccc(c(Cl)c3)Oc3cc2cc(c3O[C@@H]2O[C@H](CO)[C@@H](O)[C@H](O)[C@H]2O[C@H]2C[C@](C)(N)[C@H](O)[C@H](C)O2)Oc2ccc(cc2Cl)[C@H]1O [Vancomycin, vancomycin, reference compound]
Minimal inhibitory concentration, MHB [2]: 1 µg/mL (≈ 0.69 µM)
MIC ([2]; read-out: Minimal inhibitory concentration, Human serum): 1 µg/mL (≈ 0.69 µM)
MIC ([2]; read-out: Minimal inhibitory concentration, MHB): 1 µg/mL (≈ 0.69 µM)
Fold decrease in MIC [2]: no
Minimal inhibitory concentration, Human serum [2]: 1 µg/mL (≈ 0.69 µM)
difference in sterilizing activity/potency, blood compared to MHB [3]: slightly decreased potency
ΣFICAVG (MRSA strain MW2 [4]; HuS): 0.5
ΣFICMIN (MRSA strain MW2 [4]; HuS): 0.375
ΣFICAVG (MRSA strain MW2 [4]; MHB): 0.63
ΣFICMIN (MRSA strain MW2 [4]; MHB): 0.5
Fold decrease in MIC [5]: no

β-Defensin 3: Human AMP (hBD-3) (GIINTLQKYYCRVRGGRCAVLSCLPKEEQIGKCSTRGRKCCRRKK; ends and bridges not checked; cysteine pairing not given here; UniProt P81534 23-67, looked up) [reference compound]
ΣFICavg [1]: 1

LEAP-2: Human AMP (MTPFWRGVSLRPIGASCRDDSECITRLCRKRRCSLSVAQE; ends and bridges not checked; cysteine pairing not given here; UniProt Q969E1 38-77, looked up) [reference compound]
ΣFICavg [1]: 1

Lysozyme (Hen egg-white): lysozyme, hen egg
ΣFICavg [1]: ≤0.563

HNP-1: Human AMP [reference compound]
ΣFICavg [1]: 1

CCCCCCCCCC(=O)N[C@@H](Cc1c[nH]c2ccccc12)C(=O)N[C@H](CC(N)=O)C(=O)N[C@@H](CC(=O)O)C(=O)N[C@@H]1C(=O)NCC(=O)N[C@@H](CCCN)C(=O)N[C@@H](CC(=O)O)C(=O)N[C@H](C)C(=O)N[C@@H](CC(=O)O)C(=O)NCC(=O)N[C@H](CO)C(=O)N[C@@H]([C@H](C)CC(=O)O)C(=O)N[C@@H](CC(=O)c2ccccc2N)C(=O)O[C@@H]1C [Daptomycin, daptomycin, reference compound]
Minimal inhibitory concentration, MHB [2]: 0.5 µg/mL (≈ 0.309 µM)
Fold decrease in MIC [2]: no
Minimal inhibitory concentration, Human serum [2]: 8 µg/mL (≈ 4.94 µM)
ΣFICAVG (MRSA strain MW2 [4]; HuS): 0.292
ΣFICMIN (MRSA strain MW2 [4]; HuS): 0.25
ΣFICAVG (MRSA strain MW2 [4]; MHB): 0.63
ΣFICMIN (MRSA strain MW2 [4]; MHB): 0.5
reduction in bacterial burden compared to vehicle treated controls (MRSA strain MW2 [6]): 2-3 log10
MIC ([5]; MHB, read-out: Minimal inhibitory concentration, MHB): 0.5 µg/mL (≈ 0.309 µM)
MIC ([5]; human serum, read-out: Minimal inhibitory concentration, Human serum): 8 µg/mL (≈ 4.94 µM)
Fold decrease in MIC [5]: no

LL-37 [reference compound]
ΣFICavg [1]: 1

LEAP-1: Human AMP (Hepcidin) (DTHFPICIFCCGCCHRSKCGMCCKT; ends and bridges not checked; cysteine pairing not given here; UniProt P81172 60-84, looked up) [reference compound]
ΣFICavg [1]: 0.75
